Measured values reported in patent publication US20040067959A1, “Morphinoid derivatives as delta-opioid agonists and antagonists” (priority 2000, published 2004).

Assays:
[1] = target: T1, human delta opioid receptors (Homo sapiens, UniProt P41143); assay: radioligand binding assay, cloned human delta opioid receptor, [3H]-DADLE
T1 construct: expressed in transfected cells; membranes
Method: (§1) The activity of the compounds of the present invention as selective delta ligands is determined in radioligand binding assays using cloned human delta, mu and kappa opioid receptors stably expressed in cell lines as described below.
(§2) CHO cells were subjected to stable transfection with cDNA encoding the human delta and mu opioid receptors. Clones were grown in suspension culture in serum free media. Selection was performed by growth in the absence of nucleotides.
(§3) Membranes were prepared as previously described (J. Med. Chem. 1997, 40 3192). The binding of the preferential delta ligand [^3H]-[D-Ala^2,D-Leu^5]-enkephalin (DADLE) was evaluated at its KD concentration (0.7 nM). The binding of the mu ligand [^3H]-DAMGO (Eur. J. Pharmacol., 1989, 166, 213) and of the kappa ligand [^3H]-U69593 (Excerpta Medica, 1990, 211) were carried out at 0.5 nM. Non specific binding was determined in the presence of 10 uM of naloxone. Binding data were expressed as percentage of inhibition and fitted the following equation: f(x)=100·X/(IC50+X) where X is the cold drug concentration value. The IC50 values obtained were used to calculate the inhibitory constants (Ki) according to the Cheng and Prusoff relation (Biochem. Pharmacol., 1973, 22, 3099).

[2] = target: T2, human mu opioid receptors (Homo sapiens, UniProt P35372); assay: radioligand binding assay, cloned human mu opioid receptor, [3H]-DAMGO; details: ratio of Ki at human mu ([3H]-DAMGO 0.5 nM) to Ki at human delta
T2 construct: expressed in transfected cells; membranes
Method: as §1, §2, §3

T2 sequence (P35372 whole entry): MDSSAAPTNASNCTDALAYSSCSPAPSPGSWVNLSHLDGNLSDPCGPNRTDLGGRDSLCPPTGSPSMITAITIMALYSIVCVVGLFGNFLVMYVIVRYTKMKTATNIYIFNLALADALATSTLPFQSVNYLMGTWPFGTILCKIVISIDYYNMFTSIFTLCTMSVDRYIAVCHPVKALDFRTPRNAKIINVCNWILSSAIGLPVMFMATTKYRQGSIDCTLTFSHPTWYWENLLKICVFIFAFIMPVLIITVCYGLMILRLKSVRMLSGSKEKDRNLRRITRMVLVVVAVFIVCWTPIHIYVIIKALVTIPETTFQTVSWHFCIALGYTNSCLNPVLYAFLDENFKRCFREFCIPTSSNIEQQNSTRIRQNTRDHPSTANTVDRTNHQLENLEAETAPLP
T1 sequence (P41143 whole entry): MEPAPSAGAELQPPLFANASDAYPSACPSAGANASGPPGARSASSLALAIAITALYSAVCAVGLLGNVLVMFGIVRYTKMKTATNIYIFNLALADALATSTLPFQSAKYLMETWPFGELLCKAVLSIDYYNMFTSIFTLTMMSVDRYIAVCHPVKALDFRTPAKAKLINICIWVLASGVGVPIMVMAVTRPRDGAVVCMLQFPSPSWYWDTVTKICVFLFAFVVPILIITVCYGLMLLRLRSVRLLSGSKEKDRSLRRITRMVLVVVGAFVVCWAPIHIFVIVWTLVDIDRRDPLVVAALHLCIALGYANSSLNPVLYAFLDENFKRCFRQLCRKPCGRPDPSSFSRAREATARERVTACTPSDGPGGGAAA

Q: How did the Ki [1] turn out when `COc1ccc(N2CCN(C(=O)c3[nH]c4c(c3C)C[C@H]3[C@H]5Cc6ccc(OC)c7c6[C@@]3(CCN5C)[C@H]4O7)CC2)c(OC)c1` [Example 23] was run?
A: The Ki was 600 pM.

Q: What about the “Ki mu/Ki delta” value [2] of the same compound?
A: Its value is 1010.

Q: How did the Ki [1] turn out when `COc1ccc2c3c1O[C@H]1c4[nH]c(C(=O)N5CCN(c6ccc(C)cc6C)CC5)c(C)c4C[C@H]4[C@@H](C2)N(C)CC[C@]314` [Example 6] was run?
A: The Ki was 1000 pM.

Q: What about the “Ki mu/Ki delta” value [2] of the same compound?
A: The value was 437.
